Measurements from US11325919B1, “Synthetic novel pyrroloiminoquinone alkaloid and method of use” (priority 2019, dated 2022).
Entries after “also recorded” stand apart in the source; their conditions may differ.

Legend:
solid human tumor = solid human tumor model; cited from earlier work
L1210 = test: differential cytotoxicity zone assay, L1210; format: cell-based, murine
Source text: (§1) Discorhabdin A is the precursor to aleutianamine.

Colon 38 = test: differential cytotoxicity zone assay, Colon 38; format: cell-based, murine
Source text: as §1

CFU-GM = test: differential cytotoxicity zone assay, CFU-GM; format: cell-based
Source text: as §1

H-116 = test: differential cytotoxicity zone assay, H-116; format: cell-based, human
Source text: as §1

H-125 = test: differential cytotoxicity zone assay, H-125; format: cell-based
Source text: as §1

MCF-7 = test: differential cytotoxicity zone assay, MCF-7; format: cell-based, human
Source text: as §1

LNCaP = test: differential cytotoxicity zone assay, LNCaP; format: cell-based, human
Source text: as §1

OVC-5 = test: differential cytotoxicity zone assay, OVC-5; format: cell-based
Source text: as §1

U251N = test: differential cytotoxicity zone assay, U251N; format: cell-based
Source text: as §1

MDA = test: differential cytotoxicity zone assay, MDA; format: cell-based
Source text: as §1

PANC-1 = test: differential cytotoxicity zone assay, PANC-1; format: cell-based, human
Source text: as §1

CEM = test: differential cytotoxicity zone assay, CEM; format: cell-based, human
Source text: as §1

[1] = system: human HCT-116 colon cancer cells; test: cytotoxicity IC50, HCT-116 colon cancer cells; format: cell-based
[2] = system: PANC-1 pancreatic cancer cells; test: cytotoxicity IC50, PANC-1 pancreatic cancer cells; format: cell-based; conditions: Homo sapiens; pancreatic cancer (PANC-1)
HCT-116 cells = test: clonogenic studies, concentration-survival as function of exposure time; format: cell-based, human
Protocol: Clonogenic studies were carried out using HCT-116 cells to define the concentration-survival relationship as a function of exposure time.^26 The endpoint used, tS10 (10% survival of clonogenic cells for exposure time t) provides information essential for future preclinical therapeutic studies. These clonogenic studies based on formula II yielded a 2S10 value of >5 μM; a 24S10 value of 0.75 μM; and a 168S10 value of 0.1 μM. […] Compounds shown in Formula I are simple modifications and bio-isosteres and would have similar activity to the compound of formula II.

[3] = system: solid tumor cell lines compared to murine and human leukemia cells; test: differential cytotoxicity zone assay, solid tumor selectivity versus leukemia cells; format: cell-based
Source text: as §1

topoisomerase II = conditions: cited from earlier work

In the case of `Cn1cc2c3c1C(=O)C(N)=CC3=NCC2` [Makaluvamine A], the tumor size (solid human tumor) is given as “decrease tumor size”.
With `O=C1C2=C3C4=[N+](CCc5c[nH]c1c54)[C@@H]1C[C@]34S[C@@H](C=C4C=C1Br)N2` [Aleutianamine] the zones of inhibition (L1210; Conc. 2 mg/ml) was 950 mm, the zones of inhibition (L1210; Conc. 1/16) was 500 mm and the zones of inhibition (L1210; Conc. 1/64) was 250 mm. For the same molecule, the zones of inhibition (L1210; Conc. ¼) was 700 mm, the zones of inhibition (Colon 38; Conc. 2 mg/ml) was >1000 mm and the zones of inhibition (Colon 38; Conc. 1/16) was 900 mm. The zones of inhibition (Colon 38; Conc. 1/64) was 450 mm, the zones of inhibition (Colon 38; Conc. ¼) was >1000 mm and the zones of inhibition (CFU-GM; Conc. 1/16) was >1000 mm. For the same molecule, the zones of inhibition (CFU-GM; Conc. 1/64) was 750 mm, the zones of inhibition (CFU-GM; Conc. ¼) was >1000 mm and the zones of inhibition (H-116; Conc. 2 mg/ml) was >1000 mm. For the same molecule, the zones of inhibition (H-116; Conc. 1/16) was 600 mm, the zones of inhibition (H-116; Conc. 1/64) was 250 mm and the zones of inhibition (H-116; Conc. ¼) was 950 mm. The zones of inhibition (H-125; Conc. 1/16) was 900 mm, the zones of inhibition (H-125; Conc. 1/64) was 400 mm and the zones of inhibition (H-125; Conc. ¼) was >1000 mm. The zones of inhibition (MCF-7; Conc. 1/16) was >1000 mm, the zones of inhibition (MCF-7; Conc. 1/64) was 600 mm and the zones of inhibition (MCF-7; Conc. ¼) was >1000 mm. For the same molecule, the zones of inhibition (LNCaP; Conc. 1/16) was 1000 mm, the zones of inhibition (LNCaP; Conc. 1/64) was 500 mm and the zones of inhibition (OVC-5; Conc. 1/16) was 700 mm. The zones of inhibition (OVC-5; Conc. 1/64) was 350 mm, the zones of inhibition (OVC-5; Conc. ¼) was 900 mm and the zones of inhibition (U251N; Conc. 1/16) was 850 mm. For the same molecule, the zones of inhibition (U251N; Conc. 1/64) was 700 mm, the zones of inhibition (U251N; Conc. ¼) was >1000 mm and the zones of inhibition (MDA; Conc. 1/16) was 800 mm. For the same molecule, the zones of inhibition (MDA; Conc. 1/64) was 500 mm, the zones of inhibition (MDA; Conc. ¼) was >1000 mm and the zones of inhibition (PANC-1; Conc. 1/16) was >1000 mm. It also gave a zones of inhibition (PANC-1; Conc. 1/64) of 650 mm, a zones of inhibition (CEM; Conc. 1/16) of 750 mm and a zones of inhibition (CEM; Conc. 1/64) of 350 mm. It also gave a zones of inhibition (CEM; Conc. ¼) of 900 mm, an IC50 ([1]; colon cancer (H116)) of 1000 nM and an IC50 ([1]; colon cancer (H116 / HCT-116)) of 1000 nM. The IC50 [2] was 25 nM, the “2S10 (10% survival of clonogenic cells for exposure time t)” value (HCT-116 cells; exposure time 2) was > 5 µM and the “24S10 (10% survival of clonogenic cells for exposure time t)” value (HCT-116 cells; exposure time 24) was 0.75 µM. The “168S10 (10% survival of clonogenic cells for exposure time t)” value (HCT-116 cells; exposure time 168) was 0.1 µM and the “selectivity of cell killing” value [3] was “solid tumor selectivity; also recorded: highly potent and selective for pancreatic and breast cancer as well as gliobastoma”.
Molecule `C[C@H]([C@H](O)CCC(C)(C)O)[C@H]1CC[C@@]2(O)C3=CC(=O)[C@@H]4C[C@@H](O)[C@@H](O)C[C@]4(C)[C@H]3CC[C@]12C` [Ecdysone] has a zones of inhibition (L1210; Conc. 2 mg/ml) of 0 mm, a zones of inhibition (Colon 38; Conc. 2 mg/ml) of 0 mm and a zones of inhibition (H-116; Conc. 2 mg/ml) of 0 mm. For the same molecule, the zones of inhibition (H-125; Conc. 2 mg/ml) was 0 mm, the zones of inhibition (MCF-7; Conc. 2 mg/ml) was 0 mm and the zones of inhibition (LNCaP; Conc. 2 mg/ml) was 0 mm. The zones of inhibition (OVC-5; Conc. 2 mg/ml) was 0 mm, the zones of inhibition (U251N; Conc. 2 mg/ml) was 0 mm and the zones of inhibition (MDA; Conc. 2 mg/ml) was 0 mm. It also gave a zones of inhibition (PANC-1; Conc. 2 mg/ml) of 0 mm.
With `O=C1CC2SC3C[C@]2(C=C1Br)C1=C(N3)C(=O)c2[nH]cc3c2C1=NCC3` (stereo partly drawn) [Discorhabdin A, discorhabdin A] the zones of inhibition (L1210; Conc. 2 mg/ml) was 1000 mm, the zones of inhibition (L1210; Conc. 1/16) was 250 mm and the zones of inhibition (L1210; Conc. ¼) was 300 mm. The zones of inhibition (Colon 38; Conc. 2 mg/ml) was 750 mm, the zones of inhibition (Colon 38; Conc. 1/16) was 700 mm and the zones of inhibition (Colon 38; Conc. ¼) was 800 mm. For the same molecule, the zones of inhibition (CFU-GM; Conc. 1/16) was 300 mm, the zones of inhibition (CFU-GM; Conc. ¼) was >1000 mm and the zones of inhibition (H-116; Conc. 2 mg/ml) was >1000 mm. It also gave a zones of inhibition (H-116; Conc. 1/16) of 500 mm, a zones of inhibition (H-116; Conc. ¼) of 900 mm and a zones of inhibition (H-125; Conc. 1/16) of 750 mm. The zones of inhibition (H-125; Conc. 1/64) was 400 mm, the zones of inhibition (H-125; Conc. ¼) was 950 mm and the zones of inhibition (MCF-7; Conc. 1/16) was 600 mm. The zones of inhibition (MCF-7; Conc. 1/64) was 350 mm, the zones of inhibition (MCF-7; Conc. ¼) was 800 mm and the zones of inhibition (LNCaP; Conc. 1/16) was 500 mm. The zones of inhibition (LNCaP; Conc. 1/64) was 250 mm, the zones of inhibition (OVC-5; Conc. 1/16) was 500 mm and the zones of inhibition (OVC-5; Conc. 1/64) was 200 mm. The zones of inhibition (OVC-5; Conc. ¼) was 700 mm, the zones of inhibition (U251N; Conc. 1/16) was 300 mm and the zones of inhibition (U251N; Conc. 1/64) was 200 mm. It also gave a zones of inhibition (U251N; Conc. ¼) of 300 mm, a zones of inhibition (MDA; Conc. 1/16) of 500 mm and a zones of inhibition (MDA; Conc. 1/64) of 300 mm. It also gave a zones of inhibition (MDA; Conc. ¼) of 1000 mm, a zones of inhibition (PANC-1; Conc. 1/16) of 150 mm and a zones of inhibition (PANC-1; Conc. 1/64) of 100 mm. The zones of inhibition (PANC-1; Conc. ¼) was 450 mm, the zones of inhibition (CEM; Conc. 1/16) was 100 mm and the zones of inhibition (CEM; Conc. 1/64) was 50 mm. For the same molecule, the zones of inhibition (CEM; Conc. ¼) was 450 mm and the “inhibition of topoisomerase II” value (topoisomerase II) was “no inhibition”.
In the case of `C[N+]1=C2C=C(N)C(=O)c3[nH]cc(c32)CC1.[Cl-]` [Makaluvamine C], the tumor size (solid human tumor) is given as “decrease tumor size”.
In the case of karlotoxin 2, the zones of inhibition (L1210; Conc. 2 mg/ml) is reported as 150 mm, the zones of inhibition (Colon 38; Conc. 2 mg/ml) is reported as 200 mm and the zones of inhibition (H-116; Conc. 2 mg/ml) is reported as 200 mm. It also gave a zones of inhibition (H-125; Conc. 2 mg/ml) of 100 mm, a zones of inhibition (MCF-7; Conc. 2 mg/ml) of 200 mm and a zones of inhibition (LNCaP; Conc. 2 mg/ml) of 400 mm. It also gave a zones of inhibition (OVC-5; Conc. 2 mg/ml) of 200 mm, a zones of inhibition (U251N; Conc. 2 mg/ml) of 150 mm and a zones of inhibition (MDA; Conc. 2 mg/ml) of 200 mm. It also gave a zones of inhibition (PANC-1; Conc. 2 mg/ml) of 200 mm and a zones of inhibition (CEM; Conc. 2 mg/ml) of 100 mm.
